{"source": "ChEMBL document CHEMBL1275412", "about": "“Detection of new arr-4 and arr-5 gene cassettes in clinical Pseudomonas aeruginosa and Klebsiella pneumoniae strains from Brazil” (2008)", "key": {"Pseudomonas aeruginosa": {"system": "Pseudomonas aeruginosa", "experiment": "Antibacterial activity against Pseudomonas aeruginosa PS1111 with arr-4 gene by Etest method", "assay_type": "functional"}, "Klebsiella pneumoniae [1]": {"system": "Klebsiella pneumoniae", "experiment": "Antibacterial activity against Klebsiella pneumoniae K830 with arr-5 gene by Etest method", "assay_type": "functional"}, "Klebsiella pneumoniae [2]": {"system": "Klebsiella pneumoniae", "experiment": "Antibacterial activity against Klebsiella pneumoniae K56 with arr-5 gene by Etest method", "assay_type": "functional"}, "Klebsiella pneumoniae [3]": {"system": "Klebsiella pneumoniae", "experiment": "Antibacterial activity against Klebsiella pneumoniae K224 with arr-5 gene by Etest method", "assay_type": "functional"}, "Klebsiella pneumoniae [4]": {"system": "Klebsiella pneumoniae", "experiment": "Antibacterial activity against Klebsiella pneumoniae K688 with arr-5 gene by Etest method", "assay_type": "functional"}, "Escherichia coli [5]": {"system": "Escherichia coli", "experiment": "Antibacterial activity against Escherichia coli […] harboring arr-4 gene after 20 hrs by Etest method", "assay_type": "functional"}, "Escherichia coli [6]": {"system": "Escherichia coli", "experiment": "Antibacterial activity against Escherichia coli […] harboring arr-5 gene after 20 hrs by Etest method", "assay_type": "functional"}, "Klebsiella pneumoniae [7]": {"system": "Klebsiella pneumoniae", "experiment": "Antibacterial activity against Klebsiella pneumoniae ATCC 10031 control strain by Etest method"}}}
{"smiles": "CO[C@H]1/C=C/O[C@@]2(C)Oc3c(C)c(O)c4c(O)c(c(/C=N/N5CCN(C)CC5)c(O)c4c3C2=O)NC(=O)/C(C)=C\\C=C\\[C@H](C)[C@H](O)[C@@H](C)[C@@H](O)[C@@H](C)[C@H](OC(C)=O)[C@@H]1C", "note": "[RIFAMPIN]", "values": [{"measurement": "MIC", "setting": "Pseudomonas aeruginosa", "result": "> 32", "unit": "µg/mL"}, {"measurement": "MIC", "setting": "Klebsiella pneumoniae [1]", "result": "> 32", "unit": "µg/mL"}, {"measurement": "MIC", "setting": "Klebsiella pneumoniae [2]", "result": 8, "unit": "µg/mL"}, {"measurement": "MIC", "setting": "Klebsiella pneumoniae [3]", "result": 8, "unit": "µg/mL"}, {"measurement": "MIC", "setting": "Klebsiella pneumoniae [4]", "result": 8, "unit": "µg/mL"}, {"measurement": "MIC", "setting": "Escherichia coli [5]", "result": "> 256", "unit": "µg/mL"}, {"measurement": "MIC", "setting": "Escherichia coli [6]", "result": "> 256", "unit": "µg/mL"}, {"measurement": "MIC", "setting": "Klebsiella pneumoniae [7]", "result": 6, "unit": "µg/mL"}]}
